Experimental data taken from ChEMBL document CHEMBL5620375, “Tetrahydrobenzo[h]quinoline derivatives as a novel chemotype for dual antileishmanial-antimalarial activity graced with antitubercular activity: Design, synthesis and biological evaluation” (Eur J Med Chem, 2023).
Converted amounts (≈) assume the structure as drawn.

System: Leishmania major
Assay: Antileishmanial activity against Leishmania major promastigotes assessed as inhibition of parasite growth incubated for 48 hrs by alamar blue reagent based ELISA
Assay type: functional, organism-based
Details: not given

| SMILES | IC50 [µM] |
| --- | --- |
| COc1cccc(-c2c3c([nH]c(=O)c2C#N)-c2ccccc2CC3)c1 | 4.15 |
| COc1ccccc1-c1c2c([nH]c(=O)c1C#N)-c1ccccc1CC2 | 5.49 |
| COc1ccc(-c2c3c([nH]c(=O)c2C#N)-c2ccccc2CC3)cc1 | 3.9 |
| COc1cc(-c2c3c([nH]c(=O)c2C#N)-c2ccccc2CC3)ccc1O | 0.577 |
| N#Cc1c(-c2ccccc2[N+](=O)[O-])c2c([nH]c1=O)-c1ccccc1CC2 | 4.22 |
| N#Cc1c(O)nc2c(c1-c1cccc([N+](=O)[O-])c1)CCc1ccccc1-2 | 2.89 |

System: Leishmania major
Assay: Antileishmanial activity against Leishmania major promastigotes assessed as parasite survival incubated for 48 hrs by alamar blue reagent based ELISA relative to control
Assay type: functional
Details: not given

| SMILES | Survival [%] |
| --- | --- |
| COc1cc(-c2c3c([nH]c(=O)c2C#N)-c2ccccc2CC3)ccc1O | 22 |

System: not listed separately
Assay: Acute toxicity in mouse assessed as signs of toxicity at 25 to 150 mg/kg,po administrated for 3 days
Assay type: organism-based
Details: in vivo, 72 h, dose 25-150 mg/kg, time 3 day

| SMILES | Activity |
| --- | --- |
| COc1cc(-c2c3c([nH]c(=O)c2C#N)-c2ccccc2CC3)ccc1O | Non-Toxic |

System: Plasmodium berghei
Assay: Antimalarial activity against Plasmodium berghei ANKA infected in mouse assessed as parasitemia at 48.4 microM/Kg,po measured after 96 hrs by giemsa staining analysis relative to control
Assay type: functional
Details: at 48.4 µmol/kg

| SMILES | Activity [%] |
| --- | --- |
| COc1cccc(-c2c3c([nH]c(=O)c2C#N)-c2ccccc2CC3)c1 | 11 |
| COc1ccccc1-c1c2c([nH]c(=O)c1C#N)-c1ccccc1CC2 | 42 |
| COc1ccc(-c2c3c([nH]c(=O)c2C#N)-c2ccccc2CC3)cc1 | 26 |
| COc1cc(-c2c3c([nH]c(=O)c2C#N)-c2ccccc2CC3)ccc1O | 2 |
| N#Cc1c(-c2ccccc2[N+](=O)[O-])c2c([nH]c1=O)-c1ccccc1CC2 | 17 |
| N#Cc1c(O)nc2c(c1-c1cccc([N+](=O)[O-])c1)CCc1ccccc1-2 | 28 |
| CCN(CC)CCCC(C)Nc1ccnc2cc(Cl)ccc12.O=P(O)(O)O.O=P(O)(O)O (stereo not given) [CHLOROQUINE PHOSPHATE] | 0 |
| CCc1nc(N)nc(N)c1-c1ccc(Cl)cc1 [PYRIMETHAMINE] | 0 |

System: Leishmania major
Assay: Antileishmanial activity against Leishmania major promastigotes assessed as parasite survival incubated for 48 hrs in presence of 100 uM of folic acid by alamar blue reagent based ELISA relative to control
Assay type: functional
Details: not given

| SMILES | Survival [%] |
| --- | --- |
| COc1cc(-c2c3c([nH]c(=O)c2C#N)-c2ccccc2CC3)ccc1O | 85 |

System: Mycobacterium tuberculosis
Assay: Antitubercular activity against XDR Mycobacterium tuberculosis RCMB 2674 assessed as inhibition of bacterial growth by microplate alamar blue assay
Assay type: functional
Details: not given

| SMILES | MIC [µM] |
| --- | --- |
| COc1ccccc1-c1c2c([nH]c(=O)c1C#N)-c1ccccc1CC2 | 23.8 (≈ 7.82 µg/mL) |
| N#Cc1c(O)nc2c(c1-c1cccc([N+](=O)[O-])c1)CCc1ccccc1-2 | 91.1 (≈ 31.3 µg/mL) |

System: Plasmodium berghei
Assay: Antimalarial activity against Plasmodium berghei ANKA infected in mouse assessed as mean survival time at 48.4 microM/Kg,po measured after 96 hrs
Assay type: functional
Details: not given

| SMILES | Survival [days] |
| --- | --- |
| COc1cccc(-c2c3c([nH]c(=O)c2C#N)-c2ccccc2CC3)c1 | 10.66 |
| COc1ccccc1-c1c2c([nH]c(=O)c1C#N)-c1ccccc1CC2 | 6.5 |
| COc1ccc(-c2c3c([nH]c(=O)c2C#N)-c2ccccc2CC3)cc1 | 9.66 |
| N#Cc1c(-c2ccccc2[N+](=O)[O-])c2c([nH]c1=O)-c1ccccc1CC2 | 8.83 |
| N#Cc1c(O)nc2c(c1-c1cccc([N+](=O)[O-])c1)CCc1ccccc1-2 | 7.66 |
| CCN(CC)CCCC(C)Nc1ccnc2cc(Cl)ccc12.O=P(O)(O)O.O=P(O)(O)O (stereo not given) [CHLOROQUINE PHOSPHATE] | 13.12 |

System: not listed separately
Assay: Cytotoxicity against African green monkey Vero cells incubated for 72 hrs by crystal violet staining based assay
Assay type: toxicity, cell-based
Details: chlorocebus sabaeus

| SMILES | CC50 at 72 h [µM] |
| --- | --- |
| COc1ccccc1-c1c2c([nH]c(=O)c1C#N)-c1ccccc1CC2 | 381 |
| COc1cc(-c2c3c([nH]c(=O)c2C#N)-c2ccccc2CC3)ccc1O | 363 |

System: Mycobacterium tuberculosis
Assay: Antitubercular activity against Mycobacterium tuberculosis H37Ra assessed as inhibition of bacterial growth by microplate alamar blue assay
Assay type: functional
Details: not given

| SMILES | MIC [µM] |
| --- | --- |
| COc1cccc(-c2c3c([nH]c(=O)c2C#N)-c2ccccc2CC3)c1 | 23.8 (≈ 7.81 µg/mL) |
| COc1ccccc1-c1c2c([nH]c(=O)c1C#N)-c1ccccc1CC2 | 2.98 (≈ 0.979 µg/mL) |
| COc1ccc(-c2c3c([nH]c(=O)c2C#N)-c2ccccc2CC3)cc1 | 11.9 (≈ 3.9 µg/mL) |
| COc1cc(-c2c3c([nH]c(=O)c2C#N)-c2ccccc2CC3)ccc1O | 90.7 (≈ 31.2 µg/mL) |
| N#Cc1c(O)nc2c(c1-c1cccc([N+](=O)[O-])c1)CCc1ccccc1-2 | 5.67 (≈ 1.95 µg/mL) |
| NNC(=O)c1ccncc1 [ISONIAZID] | 0.875 (≈ 0.12 µg/mL) |

System: Plasmodium berghei
Assay: Antimalarial activity against Plasmodium berghei ANKA infected in mouse assessed as reduction in parasite growth at 48.4 microM/Kg,po measured after 96 hrs by giemsa staining analysis
Assay type: functional
Parameters: scale not given: the % may be the effect or the level left
Details: at 48.4 µmol/kg

| SMILES | Activity [%] |
| --- | --- |
| COc1cccc(-c2c3c([nH]c(=O)c2C#N)-c2ccccc2CC3)c1 | 87.78 |
| COc1ccccc1-c1c2c([nH]c(=O)c1C#N)-c1ccccc1CC2 | 53.33 |
| COc1ccc(-c2c3c([nH]c(=O)c2C#N)-c2ccccc2CC3)cc1 | 71.11 |
| COc1cc(-c2c3c([nH]c(=O)c2C#N)-c2ccccc2CC3)ccc1O | 97.78 |
| N#Cc1c(-c2ccccc2[N+](=O)[O-])c2c([nH]c1=O)-c1ccccc1CC2 | 81.11 |
| N#Cc1c(O)nc2c(c1-c1cccc([N+](=O)[O-])c1)CCc1ccccc1-2 | 68.89 |
| CCN(CC)CCCC(C)Nc1ccnc2cc(Cl)ccc12.O=P(O)(O)O.O=P(O)(O)O (stereo not given) [CHLOROQUINE PHOSPHATE] | 100 |
| CCc1nc(N)nc(N)c1-c1ccc(Cl)cc1 [PYRIMETHAMINE] | 100 |

System: Leishmania major
Assay: Antileishmanial activity against Leishmania major promastigotes assessed as parasite survival at 100 uM incubated for 48 hrs by alamar blue reagent based ELISA relative to control
Details: not given

| SMILES | survival at 100 µM [%] |
| --- | --- |
| COc1cc(Cc2cnc(N)nc2N)cc(OC)c1OC [TRIMETHOPRIM] | 71 |

System: not listed separately
Assay: Selectivity index, ratio of CC50 for cytotoxicity against African green monkey Vero cells to IC50 for antimalarial activity against chloroquine-resistant Plasmodium falciparum RKL9
Assay type: toxicity, cell-based
Details: read-out: Ratio CC50/IC50

| SMILES | selectivity ratio |
| --- | --- |
| COc1cc(-c2c3c([nH]c(=O)c2C#N)-c2ccccc2CC3)ccc1O | 18300 |

System: not listed separately
Assay: Selectivity index, ratio of CC50 for cytotoxicity against African green monkey Vero cells to MIC for antitubercular activity against Mycobacterium tuberculosis H37Ra
Assay type: toxicity, cell-based
Details: read-out: Selectivity Index

| SMILES | selectivity ratio |
| --- | --- |
| COc1ccccc1-c1c2c([nH]c(=O)c1C#N)-c1ccccc1CC2 | 127 |
| COc1cc(-c2c3c([nH]c(=O)c2C#N)-c2ccccc2CC3)ccc1O | 4 |

System: not listed separately
Assay: Selectivity index, ratio of CC50 for cytotoxicity against African green monkey Vero cells to IC50 for antileishmanial activity against Leishmania major
Assay type: toxicity, cell-based
Details: read-out: Ratio CC50/IC50

| SMILES | selectivity ratio |
| --- | --- |
| COc1ccccc1-c1c2c([nH]c(=O)c1C#N)-c1ccccc1CC2 | 60.6 |
| COc1cc(-c2c3c([nH]c(=O)c2C#N)-c2ccccc2CC3)ccc1O | 629 |

System: Plasmodium falciparum
Assay: Antimalarial activity against chloroquine-resistant Plasmodium falciparum RKL9 assessed as inhibition of parasite growth incubated for 24 hrs by giemsa staining analysis
Assay type: functional, organism-based
Details: RKL9, 24 h

| SMILES | IC50 [µM] |
| --- | --- |
| COc1cc(-c2c3c([nH]c(=O)c2C#N)-c2ccccc2CC3)ccc1O | 0.019 |
| CCc1nc(N)nc(N)c1-c1ccc(Cl)cc1 [PYRIMETHAMINE] | 0.013 |

System: Leishmania major
Assay: Antileishmanial activity against Leishmania major promastigotes assessed as parasite survival incubated for 48 hrs in presence of 20 uM of folinic acid by alamar blue reagent based ELISA relative to control
Assay type: functional
Details: not given

| SMILES | Survival [%] |
| --- | --- |
| COc1cc(-c2c3c([nH]c(=O)c2C#N)-c2ccccc2CC3)ccc1O | 78 |

System: Leishmania major
Assay: Antileishmanial activity against Leishmania major promastigotes assessed as parasite survival at 100 uM incubated for 48 hrs in presence of 100 uM of folic acid by alamar blue reagent based ELISA relative to control
Details: not given

| SMILES | survival at 100 µM [%] |
| --- | --- |
| COc1cc(Cc2cnc(N)nc2N)cc(OC)c1OC [TRIMETHOPRIM] | 99 |

System: Leishmania major
Assay: Antileishmanial activity against Leishmania major promastigotes assessed as parasite survival incubated for 48 hrs in presence of 100 uM of folinic acid by alamar blue reagent based ELISA relative to control
Assay type: functional
Details: not given

| SMILES | Survival [%] |
| --- | --- |
| COc1cc(-c2c3c([nH]c(=O)c2C#N)-c2ccccc2CC3)ccc1O | 89 |

System: Leishmania major
Assay: Antileishmanial activity against Leishmania major promastigotes assessed as parasite survival incubated for 48 hrs in presence of 20 uM of folic acid by alamar blue reagent based ELISA relative to control
Assay type: functional
Details: not given

| SMILES | Survival [%] |
| --- | --- |
| COc1cc(-c2c3c([nH]c(=O)c2C#N)-c2ccccc2CC3)ccc1O | 76 |

System: not listed separately
Assay: Acute toxicity in mouse assessed as change in body weight at 25 to 150 mg/kg,po administrated for 3 days
Assay type: organism-based
Details: in vivo, 72 h, dose 25-150 mg/kg, time 3 day

| SMILES | Activity |
| --- | --- |
| COc1cc(-c2c3c([nH]c(=O)c2C#N)-c2ccccc2CC3)ccc1O | Non-Toxic |

System: Leishmania major
Assay: Antileishmanial activity against Leishmania major amastigotes assessed as inhibition of parasite growth incubated for 72 hrs by resazurin reagent based ELISA
Assay type: functional, organism-based
Details: not given

| SMILES | IC50 [µM] |
| --- | --- |
| COc1cccc(-c2c3c([nH]c(=O)c2C#N)-c2ccccc2CC3)c1 | 4.88 |
| COc1ccccc1-c1c2c([nH]c(=O)c1C#N)-c1ccccc1CC2 | 6.29 |
| COc1ccc(-c2c3c([nH]c(=O)c2C#N)-c2ccccc2CC3)cc1 | 4.7 |
| COc1cc(-c2c3c([nH]c(=O)c2C#N)-c2ccccc2CC3)ccc1O | 0.695 |
| N#Cc1c(-c2ccccc2[N+](=O)[O-])c2c([nH]c1=O)-c1ccccc1CC2 | 5.63 |
| N#Cc1c(O)nc2c(c1-c1cccc([N+](=O)[O-])c1)CCc1ccccc1-2 | 3.97 |
